Measurements from patent US6727272B1, “Leflunomide analogs for treating rheumatoid arthritis” (Unitech Pharmaceuticals, Inc., priority 2002, dated 2004).
Where two headings read alike, the source gives them in different places.

Test system: Carrageenan-stimulated inflammation on the rear left footpad of the rat
Assay: Carrageenan-induced footpad edema in rats (Edema Rate E% and Inhibition Rate I%)
Assay type: in vivo, Wistar Albino Rats
Conditions: sc, vs control group edema rate, read-out: percentage inhibition rate (I %)
Procedure: Wistar Albino Rats of 4 to 6 weeks old with weights of 100-150 g were used for the studies.
Weigh 30 mg of λ-carrageenan (Sigma Chemical) powder; add 3 mL of saline to make the 1% carrageenan solution.
Individually weigh 10 mg of each testing compound; add 10 mL of 1% CMC and shake to make the suspension.
In the present invention, Carrageenan was used to stimulate the inflammation on the rear left footpad of the rat. The inflammation on the left footpad of each rat was measured for rats with and without treatment. Treatment includes leflunomide analogs, dexamethasone, ibuprofen, and Malononitrilamide (MNA). Measurements of the inflamation at pre-determined time points were made.
The rats were weighed and divided into three groups: (1) Control Group, (2) Test Group, and (3) Comparison Group. For each compound, 5 rats were used and marked on the tails. Before injecting carrageenan, the volume of each left footpad was measured (V0). Each rat was injected in the back as follows:
(1) Control Group: 1% CMC for Control Group,
(2) Testing Group: testing compound (10 mg/kg each) in 1% CMC, and
(3) Comparison Group: dexamethasone (1.5 mg/kg in 1% CMC), ibuprofen 10 mg/kg in 1% CMC, MNA in 1% CMC.
One hour later, 0.05 mL of 1% carrageenan was injected onto the rear footpad of each rat to initiate the inflammation. Measure the volume of the rear left footpad (Vt) at 0.5, 1, 2, 3, 4, and 5 hours.
The Edema Rate (E%) and the Inhibition Rate (I%) are calculated as follows and the results of the in-vivo studies are summarized in Table 1 and Table 2. [formula]
V0=Volume (mL) of the rear left footpad before the injection of Carrageenan.
Vt=Volume (mL) of the rear left footpad at “t” time after the injection of Carrageenan
Ec=Edema Rate of the, Control Group
Et=Edema Rate of the Testing Group and Comparison Group

Row | SMILES | inhibition in vivo at 10 mg/kg (1 h, 1 hr) [%] | inhibition in vivo at 10 mg/kg (2 h, 2 hr) [%] | inhibition in vivo at 10 mg/kg (3 h, 3 hr) [%] | inhibition in vivo at 10 mg/kg (4 h, 4 hr) [%] | inhibition in vivo at 10 mg/kg (5 h, 5 hr) [%] | other results
1 | Cc1cc(C(=O)Nc2ccccc2)no1 [Compound 5a, N-(Phenyl)-3-carboxamidyl-5-methylisoxazole] | 62.5 | 74.9 | 78.8 | 78.4 | 44.5 | 
2 | Cc1cc(C(=O)Nc2ccccc2Cl)no1 [Compound 5b] | 80.1 | 82.5 | 79.4 | 79 | 77.7 | 
3 | Cc1cc(C(=O)Nc2cccc(Cl)c2)no1 [Compound 5c, N-(3-Chlorophenyl)-3-carboxamidyl-5-methylisoxazole] | 64.4 | 55.3 | 60.6 | 63.8 | 61.1 | 
4 | Cc1cc(C(=O)Nc2ccc(Cl)cc2)no1 [Compound 5d, N-(4-Chlorophenyl)-3carboxamidyl-5-methyisoxazole] | 70.2 | 72.8 | 77.6 | 77.8 | 76 | 
5 | Cc1cc(C(=O)Nc2cccc(C(F)(F)F)c2)no1 [Compound 5e, N-(3-Trifluoromethyl)-3-carboxamidyl-5-methylisoxazole] | 26 | 41.7 | 40.7 | 44 | 46.8 | 
6 | Cc1cc(C(=O)Nc2ccc(C(F)(F)F)cc2)no1 [Compound 5f, N-(4-Trifluoromethylphenyl)3-carboxamidyl-5-methylisoxazole] | 46.2 | 53.8 | 54.6 | 58.4 | 58.3 | 
7 | Cc1cc(C(=O)Nc2ccc(Cl)cc2Cl)no1 [Compound 5g, N-(2,4-Dichlorophenyl)-3carboxamidyl-5-methylisoxazole] | 79.3 | 83.1 | 77.4 | 79 | 78 | 
8 | COc1ccc(NC(=O)c2cc(C)on2)cc1 [Compound 5h, N-(4-Methoxyphenyl)-3carboxamidyl-5-methylisoxazole] | 24 | 18.9 | 41.6 | 44.3 | 43.1 | 
9 | COc1cc(NC(=O)c2cc(C)on2)cc(OC)c1OC [Compound 5i, N-(3,4,5-Trimethoxyphenyl)-3-carboxamidyl-5-methylisoxazole] | 6.7 | 34 | 39.1 | 42.7 | 42.5 | 
10 | Cc1cc(C(=O)Nc2ccc(C(=O)O)cc2)no1 [Compound 5j, 4-[(5-Methylisoxazole-3-carbonyl)-amino]-benzoic acid] | 50.5 | 46.7 | 56.2 | 58.3 | 57.4 | 
11 | Cc1cc(C(=O)Nc2ccc(F)cc2)no1 [Compound 5k, N-(4-Fluorophenyl)-3-carboxamidyl-5-methylisoxazole] | 46.2 | 17.5 | 38.7 | 43.5 | 43.7 | 
12 | C[C@@H]1C[C@H]2[C@@H]3CCC4=CC(=O)C=C[C@]4(C)[C@@]3(F)[C@@H](O)C[C@]2(C)[C@@]1(O)C(=O)CO [Dexamethasone, reference compound] |  |  |  |  |  | inhibition in vivo at 1.5 mg/kg (1 h, 1 hr): 73.6%; inhibition in vivo at 1.5 mg/kg (2 h, 2 hr): 64.5%; inhibition in vivo at 1.5 mg/kg (3 h, 3 hr): 65.8%; inhibition in vivo at 1.5 mg/kg (4 h, 4 hr): 66.5%; inhibition in vivo at 1.5 mg/kg (5 h, 5 hr): 66.4%
13 | CC(C)Cc1ccc(C(C)C(=O)O)cc1 (stereo not drawn) [Ibuprofen, reference compound] | 9.1 | 21.6 | 45.9 | 44.4 | 38 | inhibition in vivo at 20 mg/kg (1 h, 1 hr): 20.8%; inhibition in vivo at 30 mg/kg (1 h, 1 hr): 65.4%; inhibition in vivo at 20 mg/kg (2 h, 2 hr): 43.2%; inhibition in vivo at 30 mg/kg (2 h, 2 hr): 67.8%; inhibition in vivo at 20 mg/kg (3 h, 3 hr): 55.7%; inhibition in vivo at 30 mg/kg (3 h, 3 hr): 79.7%; inhibition in vivo at 20 mg/kg (4 h, 4 hr): 55.1%; inhibition in vivo at 30 mg/kg (4 h, 4 hr): 74.9%; inhibition in vivo at 20 mg/kg (5 h, 5 hr): 51.6%; inhibition in vivo at 30 mg/kg (5 h, 5 hr): 53%
14 | Cc1oncc1C(=O)Nc1ccc(C(F)(F)F)cc1 [Leflunomide, N-(4-trifluoromethylphenyl)-4-carboxamidyl-5-methylisoxazole] | 28.4 | 34.3 | 55 | 47.8 | 46 | inhibition in vivo at 5 mg/kg (1 h, 1 hr): 3.8%; inhibition in vivo at 20 mg/kg (1 h, 1 hr): 45.7%; inhibition in vivo at 5 mg/kg (2 h, 2 hr): 19.5%; inhibition in vivo at 20 mg/kg (2 h, 2 hr): 50%; inhibition in vivo at 5 mg/kg (3 h, 3 hr): 41%; inhibition in vivo at 20 mg/kg (3 h, 3 hr): 60.4%; inhibition in vivo at 5 mg/kg (4 h, 4 hr): 38.6%; inhibition in vivo at 20 mg/kg (4 h, 4 hr): 60.3%; inhibition in vivo at 5 mg/kg (5 h, 5 hr): 38.3%; inhibition in vivo at 20 mg/kg (5 h, 5 hr): 57.4%
